{"source": "patent US11203563B2", "about": "“Preparation of zinc linolenate, and application of zinc linolenate in preparing anti-helicobacter pylori drug” (NANJING MEDICAL UNIVERSITY, priority 2018, dated 2021)", "key": {"AGS cells": {"tested_on": "AGS cells", "experimental": "(§1) 2.4.1 Cytotoxicity detection\n(1) Ges-1 and AGS cell suspensions are prepared, and the concentration is adjusted to 1×10^6.\n(2) Inoculation into a 96-well plate: 100 μL is added per well, and 3 replicates is performed for the same sample.\n(3) Culture is performed for 12 hours in an incubator at 37° C.\n(4) 10 μL of zinc linolenate, 10 μL of linolenic acid, and 10 μL of zinc chloride are added respectively, and the working concentrations are 400 μg/mL, 300 μg/mL, 200 μg/mL, 100 μg/mL, and 0 μg/mL, respectively. A group added with drugs and without cells and a PBS control group are set.\n(5) Culture is performed for 12 hours in an incubator at 37° C.\n(6) 10 μL of CCK-8 is added, mixed by tapping and incubated for 4 hours.\n(7) The absorbance at 450 nm is measured, and the survival rate is calculated according to the formula: cell proliferation rate[(As−Ab)]/[(Ac−Ab)]×100%, wherein As are wells containing the cell culture medium, drugs, and CCK-8; Ac are wells containing the cell culture medium, CCK-8, and no drug; and Ab are wells containing no cells and drugs, but only the culture medium and CCK-8. A survival curve is established based on the survival rate."}, "[1]": {"tested_on": "Staphylococcus aureus (ATCC6538)", "assay": "MIC by microdilution method, non-Helicobacter pylori bacteria", "format": "cell-based", "parameters": "key: +: Bacterial growth; −: No bacterial growth", "conditions": "72 h", "experimental": "(§2) 2.2 Detection of minimum inhibitory concentration (MIC, 100 µL system) of zinc linolenate for non-Helicobacter pylori bacteria by microdilution method\n(§3) (1) Zinc linolenate (2 mg/mL) is prepared.\n(§4) (3) Bacterial solution preparation: the non-Helicobacter pylori grown in a log phase on a solid plate is taken to make a bacterial suspension with a BHI culture medium, the absorbance (OD600) is adjusted to 0.3 (1×10^8 CFU/mL), and the bacterial suspension is diluted 100 times to 1×10^6 CFU/mL for use.\n(§5) (4) Inoculation of bacterial solution: 10 μL of bacterial solution above is taken and added to the 1-8th wells (the concentration of the bacterial solution per well is about 1.0×10^5 CFU/mL). Culture is performed for 72 h to judge the result. The drug concentrations of the first-seventh wells are 128, 64, 32, 16, 8, 4, and 2 μg/mL, respectively.\n(§6) The experiment only makes sense when the bacteria obviously grow in the 8th well, i.e. the positive control well (without antibiotics). When a single drift occurs in the microdilution method, the maximum drug concentration that inhibits bacterial growth should be recorded. If there are multiple drifts, the results should not be reported and the experiment should be repeated. The experiment is repeated 3 times for each drug."}, "Shigella dysenteriae": {"tested_on": "Shigella dysenteriae", "assay": "MIC by microdilution method, non-Helicobacter pylori bacteria", "format": "cell-based", "parameters": "key: +: Bacterial growth; −: No bacterial growth", "conditions": "72 h", "experimental": "as §2, §3, §4, §5, §6"}, "[2]": {"tested_on": "Haemophilus influenzae (ATCC49766)", "assay": "MIC by microdilution method, non-Helicobacter pylori bacteria", "format": "cell-based", "parameters": "key: +: Bacterial growth; −: No bacterial growth", "conditions": "72 h", "experimental": "as §2, §3, §4, §5, §6"}, "[3]": {"tested_on": "Moraxella catarrhalis (ATCC25238)", "assay": "MIC by microdilution method, non-Helicobacter pylori bacteria", "format": "cell-based", "parameters": "key: +: Bacterial growth; −: No bacterial growth", "conditions": "72 h", "experimental": "as §2, §3, §4, §5, §6"}, "[4]": {"tested_on": "Acinetobacter baumannii (ATCC19606)", "assay": "MIC by microdilution method, non-Helicobacter pylori bacteria", "format": "cell-based", "parameters": "key: +: Bacterial growth; −: No bacterial growth", "conditions": "72 h", "experimental": "as §2, §3, §4, §5, §6"}, "[5]": {"assay": "Animal toxicity, 10 times the therapeutic dose", "experimental": "(1) Preparation of mice: 20 8-week-old C57BL/6 mice are randomly divided into an administration group containing 10 mice and a negative control group containing 10 mice.\n(2) Intragastric administration: administration is performed with 10 times the therapeutic dose of zinc linolenate, that is, administration is performed according to 240 mg/kg per mouse, once a day for 3 consecutive days. The negative control group is administered with a PBS solution, and the number of times and dose are same as those in the administration group.\n(3) Weighing of weight: the weight of mice is weighed 1 day before administration for 7 consecutive days.\n(§7) (4) Efficacy test: the mice in the infection group are weighed 3 days after the drug is stopped, and the average weight is calculated. Blood is taken from the eyeballs, and the mice are sacrificed by cervical dislocation. Stomach, kidney, liver and spleen tissues are taken, pathologically sectioned and HE stained, and serum is tested for liver and kidney functions."}, "[6]": {"assay": "Blood biochemical indexes of liver and kidney functions, infected and treated mice", "conditions": "infected mice, therapeutic dose (omeprazole 138.2, amoxicillin 28.5, clarithromycin 14.3, zinc linolenate 24 mg/kg), intragastric, serum", "experimental": "(2) Animal administration: the experimental group is intragastrically administered. The group with omeprazole is administered with omeprazole first, and then administered with other drugs 30 min later. After the mice are administered with the drugs, the mice fast for 4 hours. Calculated according to an average of 20 g/mouse of the weight of mice, the dosage is: omeprazole 138.2 mg/kg, amoxicillin 28.5 mg/kg, clarithromycin 14.3 mg/kg, and zinc linolenate 24 mg/kg, once a day for 5 consecutive times. The negative control group is administered with a PBS solution with the same dosage and number of times as above.\n(3) Efficacy test: the mice in the infection group are weighed and the average weight is calculated on the 2 days after the drug is stopped. Blood is taken from the eyeballs and the mice are sacrificed by cervical dislocation. Stomach tissue is taken, and the isolation, culture and identification of Helicobacter pylori are the same as in 2.3.3 (3) and (4).\nas §7"}, "Ges-1 cells": {"tested_on": "Ges-1 cells", "format": "cell-based", "source_text": "as §1"}}}
{"smiles": "CC/C=C\\C/C=C\\C/C=C\\CCCCCCCC(=O)[O-].CC/C=C\\C/C=C\\C/C=C\\CCCCCCCC(=O)[O-].[Zn+2]", "note": "[zinc linolenate]", "values": [{"measurement": "toxicity compared with linolenic acid", "setting": "AGS cells", "result": "smaller than that of linolenic acid"}, {"measurement": "Bacterial growth", "setting": "[1]; zinc linolenate 2 μg/ml", "result": "+"}, {"measurement": "Bacterial growth", "setting": "[1]; zinc linolenate 4 μg/ml", "result": "+"}, {"measurement": "Bacterial growth", "setting": "[1]; zinc linolenate 8 μg/ml", "result": "+"}, {"measurement": "Bacterial growth", "setting": "[1]; zinc linolenate 16 μg/ml", "result": "+"}, {"measurement": "Bacterial growth", "setting": "[1]; zinc linolenate 32 μg/ml", "result": "+"}, {"measurement": "Bacterial growth", "setting": "[1]; zinc linolenate 64 μg/ml", "result": "+"}, {"measurement": "Bacterial growth", "setting": "[1]; zinc linolenate 128 μg/ml", "result": "+"}, {"measurement": "Bacterial growth", "setting": "Shigella dysenteriae; zinc linolenate 2 μg/ml", "result": "+"}, {"measurement": "Bacterial growth", "setting": "Shigella dysenteriae; zinc linolenate 4 μg/ml", "result": "+"}, {"measurement": "Bacterial growth", "setting": "Shigella dysenteriae; zinc linolenate 8 μg/ml", "result": "+"}, {"measurement": "Bacterial growth", "setting": "Shigella dysenteriae; zinc linolenate 16 μg/ml", "result": "+"}, {"measurement": "Bacterial growth", "setting": "Shigella dysenteriae; zinc linolenate 32 μg/ml", "result": "+"}, {"measurement": "Bacterial growth", "setting": "Shigella dysenteriae; zinc linolenate 64 μg/ml", "result": "+"}, {"measurement": "Bacterial growth", "setting": "Shigella dysenteriae; zinc linolenate 128 μg/ml", "result": "−"}, {"measurement": "Bacterial growth", "setting": "[2]; zinc linolenate 2 μg/ml", "result": "+"}, {"measurement": "Bacterial growth", "setting": "[2]; zinc linolenate 4 μg/ml", "result": "+"}, {"measurement": "Bacterial growth", "setting": "[2]; zinc linolenate 8 μg/ml", "result": "+"}, {"measurement": "Bacterial growth", "setting": "[2]; zinc linolenate 16 μg/ml", "result": "+"}, {"measurement": "Bacterial growth", "setting": "[2]; zinc linolenate 32 μg/ml", "result": "+"}, {"measurement": "Bacterial growth", "setting": "[2]; zinc linolenate 64 μg/ml", "result": "+"}, {"measurement": "Bacterial growth", "setting": "[2]; zinc linolenate 128 μg/ml", "result": "+"}, {"measurement": "Bacterial growth", "setting": "[3]; zinc linolenate 2 μg/ml", "result": "+"}, {"measurement": "Bacterial growth", "setting": "[3]; zinc linolenate 4 μg/ml", "result": "+"}, {"measurement": "Bacterial growth", "setting": "[3]; zinc linolenate 8 μg/ml", "result": "+"}, {"measurement": "Bacterial growth", "setting": "[3]; zinc linolenate 16 μg/ml", "result": "+"}, {"measurement": "Bacterial growth", "setting": "[3]; zinc linolenate 32 μg/ml", "result": "+"}, {"measurement": "Bacterial growth", "setting": "[3]; zinc linolenate 64 μg/ml", "result": "+"}, {"measurement": "Bacterial growth", "setting": "[3]; zinc linolenate 128 μg/ml", "result": "+"}, {"measurement": "Bacterial growth", "setting": "[4]; zinc linolenate 2 μg/ml", "result": "+"}, {"measurement": "Bacterial growth", "setting": "[4]; zinc linolenate 4 μg/ml", "result": "+"}, {"measurement": "Bacterial growth", "setting": "[4]; zinc linolenate 8 μg/ml", "result": "+"}, {"measurement": "Bacterial growth", "setting": "[4]; zinc linolenate 16 μg/ml", "result": "+"}, {"measurement": "Bacterial growth", "setting": "[4]; zinc linolenate 32 μg/ml", "result": "+"}, {"measurement": "Bacterial growth", "setting": "[4]; zinc linolenate 64 μg/ml", "result": "+"}, {"measurement": "Bacterial growth", "setting": "[4]; zinc linolenate 128 μg/ml", "result": "+"}, {"measurement": "weight of the mice", "setting": "[5]; 240 mg/kg (10 times the therapeutic dose), intragastric, once a day for 3 days, weighed 7 consecutive days", "result": "does not change significantly"}, {"measurement": "Alanine aminotransferase", "setting": "[5]; mouse, in vivo, 240 mg/kg", "result": 23.33, "unit": "U/L"}, {"measurement": "Aspartate aminotransferase", "setting": "[5]; mouse, in vivo, 240 mg/kg", "result": 138.33, "unit": "U/L"}, {"measurement": "Blood urea nitrogen", "setting": "[5]; mouse, in vivo, 240 mg/kg", "result": 11.90, "unit": "mmol/L"}, {"measurement": "Creatinine", "setting": "[5]; mouse, in vivo, 240 mg/kg", "result": 15.00, "unit": "µmol/L"}, {"measurement": "Alanine aminotransferase", "setting": "[6]", "result": 50.00, "unit": "U/L"}, {"measurement": "Aspartate aminotransferase", "setting": "[6]", "result": 192.33, "unit": "U/L"}, {"measurement": "Blood urea nitrogen", "setting": "[6]", "result": 14.97, "unit": "mmol/L"}, {"measurement": "Creatinine", "setting": "[6]", "result": 18.33, "unit": "µmol/L"}, {"measurement": "toxicity compared with linolenic acid", "setting": "Ges-1 cells", "result": "smaller than that of linolenic acid"}]}
